Results as given in patent US8841312B2, “Fused pyridine, pyrimidine and triazine compounds as cell cycle inhibitors” (Amgen Inc., priority 2007, dated 2014).

Assays:
Cdk4/CyclinD1 = Cdk4/CyclinD1 (Homo sapiens (Human), UniProt P11802); experiment: Cdk4 kinase inhibition assay with recombinant Cdk4/CyclinD1, Rb substrate, [33P]-ATP filter plate; assay type: biochemical; settings: 25 μM ATP, read-out: Cdk 4 IC50
Outline: (§1)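 Recombinant Cdk4/CyclinD1 or Cdk6/CyclinD3 phosphorylated Rb protein with [33P]-ATP for 1 h at room temperature. Protein was TCA-precipitated on filter plates and bound radioactivity counted. IC50 by nonlinear regression.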

Cdk6/CyclinD3 = Cdk6/CyclinD3 (Homo sapiens (Human), UniProt Q00534); experiment: Cdk6 kinase inhibition assay with recombinant Cdk6/CyclinD3, Rb substrate, [33P]-ATP filter plate; assay type: biochemical; settings: 25 μM ATP, read-out: Cdk 6 IC50
Outline: as §1

Chain of Cdk4/CyclinD1 (P11802 whole entry): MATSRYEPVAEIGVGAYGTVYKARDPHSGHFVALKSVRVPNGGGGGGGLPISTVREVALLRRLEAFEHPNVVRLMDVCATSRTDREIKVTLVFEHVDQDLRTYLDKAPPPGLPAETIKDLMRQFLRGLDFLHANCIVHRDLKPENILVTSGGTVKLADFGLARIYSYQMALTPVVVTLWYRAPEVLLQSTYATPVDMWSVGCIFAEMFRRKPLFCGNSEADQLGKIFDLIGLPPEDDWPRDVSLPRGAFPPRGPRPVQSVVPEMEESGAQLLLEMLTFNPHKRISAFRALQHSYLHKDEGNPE
Chain of Cdk4/CyclinD1 (P24385 whole entry partner): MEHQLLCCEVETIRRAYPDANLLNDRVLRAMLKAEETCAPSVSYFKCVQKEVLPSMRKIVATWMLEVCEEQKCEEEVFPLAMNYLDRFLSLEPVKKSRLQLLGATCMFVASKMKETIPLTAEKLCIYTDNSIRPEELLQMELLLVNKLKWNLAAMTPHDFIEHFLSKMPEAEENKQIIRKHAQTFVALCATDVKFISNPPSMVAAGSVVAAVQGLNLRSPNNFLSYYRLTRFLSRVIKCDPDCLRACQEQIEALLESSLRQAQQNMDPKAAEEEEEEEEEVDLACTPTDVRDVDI
Chain of Cdk6/CyclinD3 (Q00534 whole entry): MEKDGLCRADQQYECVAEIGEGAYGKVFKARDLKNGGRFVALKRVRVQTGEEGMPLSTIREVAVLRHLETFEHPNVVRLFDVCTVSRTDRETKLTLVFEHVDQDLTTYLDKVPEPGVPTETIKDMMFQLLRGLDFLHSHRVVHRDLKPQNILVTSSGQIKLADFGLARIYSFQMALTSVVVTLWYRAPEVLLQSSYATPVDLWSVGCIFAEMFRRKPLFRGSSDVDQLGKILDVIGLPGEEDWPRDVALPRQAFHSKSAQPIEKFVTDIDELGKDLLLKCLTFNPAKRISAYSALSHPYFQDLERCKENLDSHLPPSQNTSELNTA
Chain of Cdk6/CyclinD3 (P30281 whole entry partner): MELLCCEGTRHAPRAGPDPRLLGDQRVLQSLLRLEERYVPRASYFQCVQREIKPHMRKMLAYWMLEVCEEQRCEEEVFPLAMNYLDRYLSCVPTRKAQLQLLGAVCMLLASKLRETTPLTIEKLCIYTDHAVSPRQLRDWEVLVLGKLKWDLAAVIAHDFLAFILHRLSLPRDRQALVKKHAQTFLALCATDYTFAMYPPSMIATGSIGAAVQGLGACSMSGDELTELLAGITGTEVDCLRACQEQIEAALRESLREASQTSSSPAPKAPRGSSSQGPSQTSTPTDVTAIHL

Structure (SMILES) | IC50 (Cdk4/CyclinD1) [nM] | IC50 (Cdk6/CyclinD3) [nM]
O=S(=O)(c1ccc(Nc2ncc3c4ccnc(F)c4n(C4CCCC4)c3n2)nc1)N1CCNCC1 [Example 228, 9-cyclopentyl-8-fluoro-N-(5-(1-piperazinylsulfonyl)-2-pyridinyl)-9H-pyrido[4′,3′:4,5]pyrrolo[2,3-d]pyrimidin-2-amine] | 15 | 3.9
CN(C)C1CCN(C(=O)c2ccc(Nc3ncc4c5ccncc5n(C5CCCC5)c4n3)nc2)CC1 [Example 230, 9-Cyclopentyl-N-(5-((4-(dimethylamino)-1-piperidinyl)carbonyl)-2-pyridinyl)-9H-pyrido[4′,3′:4,5]pyrrolo[2,3-d]pyrimidin-2-amine] | 16 | 16
CN(C)C1CCN(c2ccc(Nc3ncc4c5ccnc(F)c5n(C5CCCC5)c4n3)nn2)CC1 [Example 252, 9-Cyclopentyl-N-(6-(4-(dimethylamino)-1-piperidinyl)-3-pyridazinyl)-8-fluoro-9H-pyrido[4′,3′:4,5]pyrrolo[2,3-d]pyrimidin-2-amine] | 2 | 5
C1=CCN(c2ccc(Nc3ncc4c5ccncc5n(C5CCCC5)c4n3)nn2)CC1 [Example 254, 9-Cyclopentyl-N-(6-(3,6-dihydro-1(2 H)-pyridinyl)-3-pyridazinyl)-9H-pyrido[4′,3′:4,5]pyrrolo[2,3-d]pyrimidin-2-amine] | 22 | 40
C1=C(c2ccc(Nc3ncc4c5ccncc5n(C5CCCC5)c4n3)nn2)CCNC1 [Example 255, 9-Cyclopentyl-N-(6-(1,2,3,6-tetrahydro-4-pyridinyl)-3-pyridazinyl)-9H-pyrido[4′,3′:4.5]pyrrolo[2,3-d]pyrimidin-2-amine] | 5.6 | 60
C1=C(c2ccc(Nc3ncc4c5ccncc5n(C5CCCC5)c4n3)nc2)CCNC1 [Example 256, 9-Cyclopentyl-N-(1′,2′,3′,6′-tetrahydro-3,4′-bipyridin-6-yl)-9H-pyrido[4′,3′:4,5]pyrrolo[2,3-d]pyrimidin-2-amine] | 1.3 | 7
c1cc(-c2ccc(Nc3ncc4c5ccncc5n(C5CCCC5)c4n3)nn2)ccn1 [Example 259, 9-cyclopentyl-N-(6-(4-pyridinyl)-3-pyridazinyl)-9H-pyrido[4′,3′:4,5]pyrrolo[2,3-d]pyrimidin-2-amine] | 49 | 101
c1cc(-c2ccc(Nc3ncc4c5ccncc5n(C5CCCC5)c4n3)nc2)ccn1 [Example 260, N-3,4′-bipyridin-6-yl-9-cyclopentyl-9H-pyrido[4′,3′:4,5]pyrrolo[2,3-d]pyrimidin-2-amine] | 45 | 60
COc1cc(-c2ccc(Nc3ncc4c5ccncc5n(C5CCCC5)c4n3)nn2)ccn1 [Example 262, 9-Cyclopentyl-N-(6-(2-methoxy-4-pyridinyl)-3-pyridazinyl)-9H-pyrido[4′,3′:4,5]pyrrolo[2,3-d]pyrimidin-2-amine] | 32 | 38
Oc1ccc(-c2ccc(Nc3ncc4c5ccncc5n(C5CCCC5)c4n3)nn2)cn1 [Example 266, 5-(6-((9-Cyclopentyl-9H-pyrido[4′,3′:4,5]pyrrolo[2,3-d]pyrimidin-2-yl)amino)-3-pyridazinyl)-2-pyridinol] | 3.1 | 6.5
O=S1(=O)CCC(c2ccc(Nc3ncc4c5ccncc5n(C5CCCC5)c4n3)nc2)CC1 [Example 270, 9-Cyclopentyl-N-(5-(1,1-dioxidotetrahydro-2H-thiopyran-4-yl)-2-pyridinyl)-9H-pyrido[4′,3′:4,5]pyrrolo[2,3-d]pyrimidin-2-amine] | 40 | 35
O=S1(=O)CC=C(c2ccc(Nc3ncc4c5ccnc(F)c5n(C5CCCC5)c4n3)nc2)CC1 [Example 271, 9-Cyclopentyl-N-(5-(1,1-dioxido-3,6-dihydro-2H-thiopyran-4-yl)-2-pyridinyl)-8-fluoro-9H-pyrido[4′,3′:4,5]pyrrolo[2,3-d]pyrimidin-2-amine] | 16 | 16
NC1[C@H]2CN(c3ccc(Nc4ncc5c6ccncc6n(C6CCCC6)c5n4)nn3)C[C@@H]12 (stereo partly drawn) [Example 272, N-(6-((1R,5S)-6-amino-3-azabicyclo[310]hex-3-yl)-3-pyridazinyl)-9-cyclopentyl-9H-pyrido[4′,3′:4,5]pyrrolo[2,3-d]pyrimidin-2-amine] | 27 | 101
CN(C)[C@@H]1CCN(c2ccc(Nc3ncc4c5ccncc5n(C5CCCC5)c4n3)nc2)C1 [Example 289] | 7.2 | 40
CN(C)CCCN(C)c1ccc(Nc2ncc3c4ccncc4n(C4CCCC4)c3n2)nn1 [Example 290] | 35 | 85
C[C@H](O)CNc1ccc(Nc2ncc3c4ccncc4n(C4CCCC4)c3n2)nn1 [Example 294] | 5.9 | 26
C[C@H](CO)Nc1ccc(Nc2ncc3c4ccncc4n(C4CCCC4)c3n2)nn1 [Example 295] | 6.8 | 33.7
C[C@@H](CO)Nc1ccc(Nc2ncc3c4ccncc4n(C4CCCC4)c3n2)nn1 [Example 296] | 5.5 | 14
CC1(C)CN(c2ccc(Nc3ncc4c5ccccc5n(C5CCCC5)c4n3)nn2)CCN1 [Example 299] | 60 | 34
CN1CCN(c2ccc(Nc3ncc4c5ccccc5n(C5CCCC5)c4n3)nn2)CC1 [Example 301] | 31 | 22
C[C@H]1CN(c2ccc(Nc3ncc4c5ccccc5n(C5CCCC5)c4n3)nn2)CCN1 [Example 302] | 47 | 23

The remaining molecules from weak to strong by IC50 (Cdk4/CyclinD1), led by results:

IC50 (Cdk4/CyclinD1) [nM] | IC50 (Cdk6/CyclinD3) [nM] | Structure (SMILES)
520 | 860 | O=C(O)c1ccc(Nc2ncc3c4ccnc(O)c4n(C4CCCC4)c3n2)nc1 [Example 224, 6-((9-cyclopentyl-8-hydroxy-9H-pyrido[4′,3′:4,5]pyrrolo[2,3-d]pyrimidin-2-yl)amino)-3-pyridinecarboxylic acid]
233 | 360 | COc1ccc(-c2ccc(Nc3ncc4c5ccncc5n(C5CCCC5)c4n3)nn2)cn1 [Example 261, 9-Cyclopentyl-N-(6-(6-methoxy-3-pyridinyl)-3-pyridazinyl)-9H-pyrido[4′,3′:4,5]pyrrolo[2,3-d]pyrimidin-2-amine]
125 | 257 | c1cc2c3cnc(Nc4ccc(N5CCNCC5)cn4)cc3n(Cc3ccsc3)c2cn1 [Example 235, N-(5-(1-piperazinyl)-2-pyridinyl)-5-(3-thiophenylmethyl)-5H-pyrido[3′,4′:4,5]pyrrolo[2,3-c]pyridin-3-amine]
46 | 27 | O[C@@H]1CCN(c2ccc(Nc3ncc4c5ccccc5n(C5CCCC5)c4n3)nc2)C1 [Example 304]
40 | 8 | CN1CCN(c2ccc(Nc3ncc4c5ccccc5n(C5CCCC5)c4n3)nc2)CC1 [Example 298]
31 | 30 | CC1CN(c2ccc(Nc3ncc4c5ccccc5n(C5CCCC5)c4n3)nc2)CC(C)N1 (stereo not drawn) [Example 303]
22 | 48 | CN(C)C1CCN(c2ccc(Nc3ncc4c5ccccc5n(C5CCCC5)c4n3)nn2)CC1 [Example 300]
21.2 | 20.5 | CN(C)C1CCN(S(=O)(=O)c2ccc(Nc3ncc4c5ccncc5n(C5CCCC5)c4n3)nc2)CC1 [Example 229, 9-cyclopentyl-N-(5-((4-(dimethylamino)-1-piperidinyl)sulfonyl)-2-pyridinyl)-9H-pyrido[4′,3′:4,5]pyrrolo[2,3-d]pyrimidin-2-amine]
14 | 40 | CN(C)[C@H]1CCN(c2ccc(Nc3ncc4c5ccncc5n(C5CCCC5)c4n3)nc2)C1 [Example 288]
9.3 | 16.6 | Oc1cc(-c2ccc(Nc3ncc4c5ccncc5n(C5CCCC5)c4n3)nn2)ccn1 [Example 264, 4-(6-((9-cyclopentyl-9H-pyrido[4′,3′:4,5]pyrrolo[2,3-d]pyrimidin-2-yl)amino)-3-pyridazinyl)-2-pyridinol]
7 | 5.3 | c1cc2c3cnc(Nc4ccc(C5CCNCC5)cn4)nc3n(C3CCCC3)c2cn1 [Example 257, 9-cyclopentyl-N-(5-(4-piperidinyl)-2-pyridinyl)-9H-pyrido[4′,3′:4,5]pyrrolo[2,3-d]pyrimidin-2-amine]
4.9 | 16.1 | OCCNc1ccc(Nc2ncc3c4ccncc4n(C4CCCC4)c3n2)nn1 [Example 292]
4.6 | 16 | C[C@@H](O)CNc1ccc(Nc2ncc3c4ccncc4n(C4CCCC4)c3n2)nn1 [Example 293]
4 | 3 | O=C1CN(Cc2ccc(Nc3ncc4c5ccncc5n(C5CCCC5)c4n3)nc2)CCN1 [Example 225, 4-((6-((9-cyclopentyl-9H-pyrido[4′,3′:4,5]pyrrolo[2,3-d]pyrimidin-2-yl)amino)-3-pyridinyl)methyl)-2-piperazinone]
3.9 | 27 | C[C@@H]1CN(c2ccc(Nc3ncc4c5ccnc(F)c5n(C5CCCC5)c4n3)nn2)CCN1 [Example 253, 9-Cyclopentyl-8-fluoro-N-(6-((3R)-3-methyl-1-piperazinyl)-3-pyridazinyl)-9H-pyrido[4′,3′:4,5]pyrrolo[2,3-d]pyrimidin-2-amine]
3.2 | 2.7 | O=C1CNCCN1Cc1ccc(Nc2ncc3c4ccncc4n(C4CCCC4)c3n2)nc1 [Example 226, 1-((6-((9-cyclopentyl-9H-pyrido[4′,3′:4,5]pyrrolo[2,3-d]pyrimidin-2-yl)amino)-3-pyridinyl)methyl)-2-piperazinone]
3 | 3.1 | O=S(=O)(c1ccc(Nc2ncc3c4ccncc4n(C4CCCC4)c3n2)nc1)N1CCNCC1 [Example 227, 9-Cyclopentyl-N-(5-(1-piperazinylsulfonyl)-2-pyridinyl)-9H-pyrido[4′,3′:4,5]pyrrolo[2,3-d]pyrimidin-2-amine]
1.4 | 13 | OCCCNc1ccc(Nc2ncc3c4ccncc4n(C4CCCC4)c3n2)nn1 [Example 297]
